Assay results: US8629116B2, “Method for inducing a TRIF-bias” (priority 2008, dated 2014)

What was measured:
[1] = system: RAW264.7 siRNA cell lines; assay: Cytokine production in stably transfected RAW264.7 siRNA (MyD88, TRIF, LUC) cell lines; assay type: cell-based, mouse; details: for potency for TNFα production: 20 hours
Procedure: Exponentially growing RAW264.7 cells are stably transfected with FuGene 6 by conventional methods in Optimem (Roche, Indianapolis Ind.) with psiRNA-mTICAM1, psiRNA-mMyD88, or psiRNA-LUC (irrelevant control) plasmids containing shRNA sequences for protein knockdown, a Zeocin resistance gene and a GFP coding sequence (InVivoGen, San Diego, Calif.). Transfection efficiency after selection is determined by percent GFP positive cells using the ImageStream.
RNA interference (RNAi) is utilized to disrupt expression of specific genes that are involved in TLR signaling pathways: […] and MyD88. RAW264.7 siRNA cell lines are prepared using commercially available plasmids (Invivogen). These plasmids contain a Zeocin selection marker, a sequence coding for GFP and the sequence coding for shRNA for knockdown. Once the cells are efficiently transfected, stable cell lines are generated through antibiotic selection. Purity of cultures is determined by GFP+ cells within the culture system. An irrelevant plasmid is also used to stably transfect cells as a control.
To determine whether TRIF or MyD88 are required for the cytokine response after stimulation with L and D isomers, stably transfected siRNA cell lines are stimulated for 20 hours (in an assay similar to the MM6 potency assay) or 4 hours (to capture MyD88 induced cytokine responses) and cellular supernatants are assayed for TNFα (MyD88) and IP-10 (TRIF). Twenty hours post-stimulation, the irrelevant control, LUC cell line has a similar IP-10 induction pattern as the wt RAW264.7 cells shown previously. […] When TRIF is intact (in MyD88 knockdown cell lines) the IP-10 levels remain dose responsive and total cytokine is increased above the irrelevant control (LUC). Other assay systems (including human and mouse systems) support the hypothesis that both L and D isomers are efficient at inducing TRIF mediated cytokines.
In order to better discriminate the MyD88 requirement for TNFα production, siRNA knockdown cell lines are examined for TNFα production after four hours of AGP stimulation (FIG. 35). […]

[2] = system: human monocyte-derived dendritic cells; assay: IL-12p70 and IL-23 induction in human monocyte-derived dendritic cells; assay type: cell-based
Procedure: Peripheral blood mononuclear cells (PBMCs) are isolated from the blood of healthy donors via a Ficoll Hypaque 1.077 gradient and treated with agonists or are used to isolate adherent monocytes in monocyte media (RPMI 1640 (ATCC), 10% human AB serum (Lonza/BioWhittaker), 100 U/mL penicillin/100 ug/mL streptomycin (Sigma), 50 uM 2-mercaptoethanol (Sigma) as described (Stover et al. 4440-49; Kawai et al. 5887-94; Gervassi et al. 7231-39). Monocyte-derived macrophages are produced by incubating adherent monocytes for 5 days in monocyte media with 50 ng/mL rhM-CSF (R&D Systems) with media changes at day 3 and day 5 before agonist treatment. Monocyte-derived dendritic cells (DC) are produced by incubating adherent monocytes for 7 days in monocyte media with 10 ng/mL rhGM-CSF and 10 ng/mL rhIL-4 (R&D Systems) with media changes on day 3 and day 6.
Induction of inflammatory cytokines and maturation of dendritic cells (DC) contribute to the promotion of a robust immune response during the administration of an adjuvanted vaccine. Therefore, the capacity of CRX527 and CRX-547 to induce IL-12p70 in human DCs is compared. The induction of IL-12p70 promotes the development of the Th1 helper T cell lineage and favors development of a cell-mediated immune response (Goriely, Neurath, and Goldman 81-86; Gutcher and Becher 1119-27). […]

[3] = target: T1, muTLR4, muMD-2, and muCD14 (Mus musculus, UniProt Q9JHF9+Q9QUK6); assay: NFκB reporter activity in HEK293 cells transfected with muTLR4, muMD-2, muCD14; assay type: cell-based; details: HEK293 muTLR4/muMD-2/muCD14
T1 construct: expressed in transfected cells; host or cells: HEK293
T1 sequence (Q9QUK6 26-835): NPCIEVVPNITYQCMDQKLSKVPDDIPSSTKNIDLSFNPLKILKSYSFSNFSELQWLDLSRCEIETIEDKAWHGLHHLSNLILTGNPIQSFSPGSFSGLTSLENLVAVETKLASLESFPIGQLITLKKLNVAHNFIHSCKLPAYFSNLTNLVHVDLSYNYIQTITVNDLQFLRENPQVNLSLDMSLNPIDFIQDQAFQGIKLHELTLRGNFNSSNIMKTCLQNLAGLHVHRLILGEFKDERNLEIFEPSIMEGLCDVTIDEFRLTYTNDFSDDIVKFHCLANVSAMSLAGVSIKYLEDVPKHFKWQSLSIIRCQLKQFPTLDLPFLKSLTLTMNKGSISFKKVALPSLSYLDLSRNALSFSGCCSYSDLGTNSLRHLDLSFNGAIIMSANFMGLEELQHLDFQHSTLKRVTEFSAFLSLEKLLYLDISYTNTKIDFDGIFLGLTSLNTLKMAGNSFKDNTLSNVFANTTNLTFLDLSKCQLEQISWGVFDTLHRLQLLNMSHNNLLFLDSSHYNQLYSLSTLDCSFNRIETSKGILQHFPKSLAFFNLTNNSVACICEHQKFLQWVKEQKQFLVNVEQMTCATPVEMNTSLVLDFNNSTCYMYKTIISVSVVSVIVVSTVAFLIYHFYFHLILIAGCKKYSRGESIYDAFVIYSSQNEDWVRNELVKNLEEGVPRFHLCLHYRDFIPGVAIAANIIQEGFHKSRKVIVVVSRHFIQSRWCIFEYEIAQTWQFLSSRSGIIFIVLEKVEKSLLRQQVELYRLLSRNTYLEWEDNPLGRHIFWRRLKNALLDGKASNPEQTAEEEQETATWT
T1 sequence (Q9JHF9 19-160): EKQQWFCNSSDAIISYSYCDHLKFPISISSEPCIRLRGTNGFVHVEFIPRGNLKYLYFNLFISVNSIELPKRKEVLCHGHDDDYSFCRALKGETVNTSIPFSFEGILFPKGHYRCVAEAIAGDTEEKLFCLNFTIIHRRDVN

Row | Compound | potency for TNFα production ([1]; MyD88 or TRIF knocked down) | potency at inducing TNFα versus equivalent dose of CRX-547 ([1]; four hours) | potency for TNFα production ([1]; irrelevant control (LUC)) | IL-23 expression ([2]; dendritic cells, compared with CRX-527) | IL-12p70 response ([2]; human monocyte-derived DC, compared to CRX-527 and LPS) | NFκB reporter activity [3]
1 | CCCCCCCCCCCC(CC(=O)NC(COC1OC(CO)C(OP(=O)(O)O)C(OC(=O)CC(CCCCCCCCCCC)OC(=O)CCCCCCCCC)C1NC(=O)CC(CCCCCCCCCCC)OC(=O)CCCCCCCCC)C(=O)O)OC(=O)CCCCCCCCC.CCN(CC)CC (stereo not drawn) [CRX-527] | same increased potency | more potent | more potent |  |  | 
2 | CCCCCCCCCCCC(CC(=O)NC(COC1OC(CO)C(OP(=O)(O)O)C(OC(=O)CC(CCCCCCCCCCC)OC(=O)CCCCCCCCC)C1NC(=O)CC(CCCCCCCCCCC)OC(=O)CCCCCCCCC)C(=O)O)OC(=O)CCCCCCCCC.CCN(CC)CC (stereo not drawn) [CRX-547] |  |  |  | reduced virtually to base-line levels | significantly reduced | more similar to CRX-527 and LPS
